Results taken from patent US11541130B2, “Systems and methods for nucleic acid expression in vivo” (DNARx, priority 2017, dated 2023).

Tests used:
[1] = assay type: in vivo; conditions: mice
[2] = in vivo; cited from earlier work

dexamethasone palmitate
Serum anti-CD20 mAb (Rituximab) level, in words ([1]; ELISA 24 hrs after sequential injection (Example 18: also over time)): further increases gene expression in vivo

Rituximab: anti-CD20 monoclonal antibody expressed in mice from plasmid vector containing Rituximab cDNA
Duration of serum anti-CD20 mAb (Rituximab) expression ([1]; after a single sequential IV injection, 1050 nmol DOTAP 2.5% DP, 75 ug plasmid): over 275 days

B1: Neupogen: recombinant human G-CSF protein (protein, UniProt P09919 31-207, looked up)
Granulocyte …: TPLGPASSLPQSFLLKCLEQVRKIQGDGAALQEKLVSECATYKLCHPEELVLLGHSLGIPWAPLSSCPSQALQLAGCLSQLHSGLFLYQGLLQALEGISPELGPTLDTLQLDVADFATTIWQQMEELGMAPALQPTQGAMPAFASAFQRRAGGVLVASHLQSFLEVSYRVLRHLAQP
modifications: filgrastim
notes: recombinant human G-CSF protein
Time for serum HG-CSF levels to return to baseline after each daily dose [2]: approximately 14 hours
